# Experimental data published in PubChem BioAssay (NCI).
#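 Following 48 hours of exposure in 96-well plates, responses at five concentrations were used to interpolate endpoints linearly. TGI marks complete inhibition of growth.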
# Experiments:
# Assay in all cases: DTP human tumour cell line panel, 48 h
# NCI-H226 lung = test system: NCI-H226 lung
# SK-MEL-28 melanoma = test system: SK-MEL-28 melanoma
# HOP-62 NSCLC = test system: HOP-62 NSCLC
# UACC-62 melanoma = test system: UACC-62 melanoma
# A498 renal = test system: A498 renal
# BT-549 breast = test system: BT-549 breast
# HCT-15 colon = test system: HCT-15 colon
# UACC-257 melanoma = test system: UACC-257 melanoma
# SN12C renal = test system: SN12C renal
# MALME-3M melanoma = test system: MALME-3M melanoma
# HS 578T breast = test system: HS 578T breast
# KM12 colon = test system: KM12 colon
# NCI-H460 lung = test system: NCI-H460 lung
# ACHN renal = test system: ACHN renal
# IGROV1 ovarian = test system: IGROV1 ovarian
# SW-620 colon = test system: SW-620 colon
# NCI/ADR-RES ovarian = test system: NCI/ADR-RES ovarian
# SNB-19 CNS = test system: SNB-19 CNS
# CAKI-1 renal = test system: CAKI-1 renal
# MCF7 breast = test system: MCF7 breast
# HOP-92 NSCLC = test system: HOP-92 NSCLC
# MDA-MB-435 = test system: MDA-MB-435
# SF-295 CNS = test system: SF-295 CNS
# M14 melanoma = test system: M14 melanoma
# HCT-116 colon = test system: HCT-116 colon
# DU-145 prostate = test system: DU-145 prostate
# SK-OV-3 ovarian = test system: SK-OV-3 ovarian
# HCC-2998 colon = test system: HCC-2998 colon
# SNB-75 CNS = test system: SNB-75 CNS
# A549 NSCLC = test system: A549 NSCLC
# OVCAR-8 ovarian = test system: OVCAR-8 ovarian
# T-47D breast = test system: T-47D breast
# SR leukemia = test system: SR leukemia
# OVCAR-4 ovarian = test system: OVCAR-4 ovarian
# SK-MEL-5 melanoma = test system: SK-MEL-5 melanoma
# SK-MEL-2 melanoma = test system: SK-MEL-2 melanoma
# MOLT-4 leukemia = test system: MOLT-4 leukemia
# PC-3 prostate = test system: PC-3 prostate
# MDA-N = test system: MDA-N
# NCI-H23 lung = test system: NCI-H23 lung
# U251 CNS = test system: U251 CNS
# MDA-MB-231 breast = test system: MDA-MB-231 breast
# 786-0 renal = test system: 786-0 renal
# OVCAR-5 ovarian = test system: OVCAR-5 ovarian
# LOX IMVI melanoma = test system: LOX IMVI melanoma
# TK-10 renal = test system: TK-10 renal
# NCI-H522 lung = test system: NCI-H522 lung
# COLO 205 colon = test system: COLO 205 colon
# UO-31 renal = test system: UO-31 renal
# SF-539 CNS = test system: SF-539 CNS
# HL-60(TB) leukemia = test system: HL-60(TB) leukemia
# SF-268 CNS = test system: SF-268 CNS
# EKVX NSCLC = test system: EKVX NSCLC
# OVCAR-3 ovarian = test system: OVCAR-3 ovarian
# K-562 leukemia = test system: K-562 leukemia
# RXF 393 renal = test system: RXF 393 renal
# HT29 colon = test system: HT29 colon
# HOP-18 NSCLC = test system: HOP-18 NSCLC
# DMS 114 small cell lung = test system: DMS 114 small cell lung
# LXFL 529 NSCLC = test system: LXFL 529 NSCLC
# DLD-1 colon = test system: DLD-1 colon
# KM20L2 colon = test system: KM20L2 colon
# SNB-78 CNS = test system: SNB-78 CNS
# DMS 273 small cell lung = test system: DMS 273 small cell lung
# RPMI-8226 leukemia = test system: RPMI-8226 leukemia
# CCRF-CEM leukemia = test system: CCRF-CEM leukemia
# M19-MEL melanoma = test system: M19-MEL melanoma
smiles,measurement,setting,value
CCn1cc(C(=O)O)c(=O)c2cc(F)c(N3CCN(Cn4c(O)c(N=NC(=O)c5ccncc5)c5cc(Cl)ccc54)CC3)cc21,TGI,NCI-H226 lung,> 100 µM
same,TGI,SK-MEL-28 melanoma,> 100 µM
same,TGI,HOP-62 NSCLC,55.2 µM
same,TGI,UACC-62 melanoma,> 100 µM
same,TGI,A498 renal,> 100 µM
same,TGI,BT-549 breast,> 100 µM
same,TGI,HCT-15 colon,> 100 µM
same,TGI,UACC-257 melanoma,> 100 µM
same,TGI,SN12C renal,> 100 µM
same,TGI,MALME-3M melanoma,> 100 µM
same,TGI,HS 578T breast,> 100 µM
same,TGI,KM12 colon,> 100 µM
same,TGI,NCI-H460 lung,> 100 µM
same,TGI,ACHN renal,> 100 µM
same,TGI,IGROV1 ovarian,61.6 µM
same,TGI,SW-620 colon,> 100 µM
same,TGI,NCI/ADR-RES ovarian,> 100 µM
same,TGI,SNB-19 CNS,> 100 µM
same,TGI,CAKI-1 renal,72.8 µM
same,TGI,MCF7 breast,> 100 µM
same,TGI,HOP-92 NSCLC,> 100 µM
same,TGI,MDA-MB-435,> 100 µM
same,TGI,SF-295 CNS,> 100 µM
same,TGI,M14 melanoma,> 100 µM
same,TGI,HCT-116 colon,> 100 µM
same,TGI,DU-145 prostate,> 100 µM
same,TGI,SK-OV-3 ovarian,61.3 µM
same,TGI,HCC-2998 colon,> 100 µM
same,TGI,SNB-75 CNS,70.1 µM
same,TGI,A549 NSCLC,> 100 µM
same,TGI,OVCAR-8 ovarian,> 100 µM
same,TGI,T-47D breast,> 100 µM
same,TGI,SR leukemia,31 µM
same,TGI,OVCAR-4 ovarian,> 100 µM
same,TGI,SK-MEL-5 melanoma,> 100 µM
same,TGI,SK-MEL-2 melanoma,60.9 µM
same,TGI,MOLT-4 leukemia,36 µM
same,TGI,PC-3 prostate,> 100 µM
same,TGI,MDA-N,> 100 µM
same,TGI,NCI-H23 lung,> 100 µM
same,TGI,U251 CNS,94.4 µM
same,TGI,MDA-MB-231 breast,> 100 µM
same,TGI,786-0 renal,> 100 µM
same,TGI,OVCAR-5 ovarian,> 100 µM
same,TGI,LOX IMVI melanoma,> 100 µM
same,TGI,TK-10 renal,71.3 µM
same,TGI,NCI-H522 lung,63.6 µM
same,TGI,COLO 205 colon,> 100 µM
same,TGI,UO-31 renal,> 100 µM
same,TGI,SF-539 CNS,63.1 µM
same,TGI,HL-60(TB) leukemia,37 µM
same,TGI,SF-268 CNS,> 100 µM
same,TGI,EKVX NSCLC,> 100 µM
same,TGI,OVCAR-3 ovarian,> 100 µM
same,TGI,K-562 leukemia,> 100 µM
same,TGI,RXF 393 renal,51.3 µM
same,TGI,HT29 colon,> 100 µM
CCOC(=O)C1=C(C)C2C3C(=O)NC(=O)C3C1(C)C1C(=O)NC(=O)C21 (centres undefined),TGI,NCI-H226 lung,> 100 µM
same,TGI,SK-MEL-28 melanoma,> 100 µM
same,TGI,HOP-18 NSCLC,> 100 µM
same,TGI,HOP-62 NSCLC,> 100 µM
same,TGI,UACC-62 melanoma,> 100 µM
same,TGI,A498 renal,> 100 µM
same,TGI,HCT-15 colon,> 100 µM
same,TGI,UACC-257 melanoma,> 100 µM
same,TGI,SN12C renal,> 100 µM
same,TGI,MALME-3M melanoma,> 100 µM
same,TGI,KM12 colon,> 100 µM
same,TGI,NCI-H460 lung,> 100 µM
same,TGI,ACHN renal,> 100 µM
same,TGI,IGROV1 ovarian,> 100 µM
same,TGI,SW-620 colon,> 100 µM
same,TGI,DMS 114 small cell lung,> 100 µM
same,TGI,SNB-19 CNS,> 100 µM
same,TGI,HOP-92 NSCLC,> 100 µM
same,TGI,SF-295 CNS,> 100 µM
same,TGI,M14 melanoma,> 100 µM
same,TGI,HCT-116 colon,> 100 µM
same,TGI,SK-OV-3 ovarian,> 100 µM
same,TGI,HCC-2998 colon,> 100 µM
same,TGI,SNB-75 CNS,> 100 µM
same,TGI,A549 NSCLC,> 100 µM
same,TGI,OVCAR-8 ovarian,> 100 µM
same,TGI,OVCAR-4 ovarian,> 100 µM
same,TGI,SK-MEL-5 melanoma,> 100 µM
same,TGI,SK-MEL-2 melanoma,> 100 µM
same,TGI,MOLT-4 leukemia,> 100 µM
same,TGI,LXFL 529 NSCLC,> 100 µM
same,TGI,NCI-H23 lung,> 100 µM
same,TGI,DLD-1 colon,> 100 µM
same,TGI,U251 CNS,> 100 µM
same,TGI,786-0 renal,> 100 µM
same,TGI,KM20L2 colon,> 100 µM
same,TGI,SNB-78 CNS,> 100 µM
same,TGI,LOX IMVI melanoma,> 100 µM
same,TGI,DMS 273 small cell lung,> 100 µM
same,TGI,RPMI-8226 leukemia,> 100 µM
same,TGI,TK-10 renal,> 100 µM
same,TGI,COLO 205 colon,> 100 µM
same,TGI,UO-31 renal,> 100 µM
same,TGI,CCRF-CEM leukemia,> 100 µM
same,TGI,SF-539 CNS,> 100 µM
same,TGI,M19-MEL melanoma,> 100 µM
same,TGI,HL-60(TB) leukemia,> 100 µM
same,TGI,SF-268 CNS,> 100 µM
same,TGI,EKVX NSCLC,> 100 µM
same,TGI,OVCAR-3 ovarian,> 100 µM
same,TGI,K-562 leukemia,> 100 µM
same,TGI,RXF 393 renal,> 100 µM
same,TGI,HT29 colon,> 100 µM
COc1ccc2c(c1)-c1c(c3ccccc3n1CCN1CCCCC1)CC2,TGI,NCI-H226 lung,37.5 µM
same,TGI,SK-MEL-28 melanoma,99.2 µM
same,TGI,HOP-62 NSCLC,> 63.1 µM
same,TGI,UACC-62 melanoma,36.5 µM
same,TGI,A498 renal,> 100 µM
same,TGI,BT-549 breast,> 71 µM
same,TGI,HCT-15 colon,27.7 µM
same,TGI,UACC-257 melanoma,54.9 µM
same,TGI,SN12C renal,> 83.9 µM
same,TGI,MALME-3M melanoma,39.3 µM
same,TGI,HS 578T breast,> 65.7 µM
same,TGI,KM12 colon,> 56.9 µM
same,TGI,NCI-H460 lung,32.4 µM
same,TGI,ACHN renal,> 100 µM
same,TGI,IGROV1 ovarian,41.9 µM
same,TGI,SW-620 colon,81.2 µM
same,TGI,NCI/ADR-RES ovarian,34.4 µM
same,TGI,SNB-19 CNS,66.4 µM
same,TGI,CAKI-1 renal,> 75.2 µM
same,TGI,MCF7 breast,> 80.8 µM
same,TGI,HOP-92 NSCLC,54.4 µM
same,TGI,MDA-MB-435,73.2 µM
same,TGI,SF-295 CNS,34.4 µM
same,TGI,M14 melanoma,> 55.8 µM
same,TGI,HCT-116 colon,29.5 µM
same,TGI,DU-145 prostate,> 100 µM
same,TGI,SK-OV-3 ovarian,53 µM
same,TGI,HCC-2998 colon,19.2 µM
same,TGI,SNB-75 CNS,> 100 µM
same,TGI,A549 NSCLC,> 88.9 µM
same,TGI,OVCAR-8 ovarian,> 55.3 µM
same,TGI,T-47D breast,> 94.4 µM
same,TGI,SR leukemia,30.9 µM
same,TGI,OVCAR-4 ovarian,> 100 µM
same,TGI,SK-MEL-5 melanoma,30.1 µM
same,TGI,SK-MEL-2 melanoma,16.7 µM
same,TGI,MOLT-4 leukemia,47.4 µM
same,TGI,PC-3 prostate,> 87.7 µM
same,TGI,MDA-N,67.5 µM
same,TGI,NCI-H23 lung,38.8 µM
same,TGI,U251 CNS,56.7 µM
same,TGI,MDA-MB-231 breast,31.1 µM
same,TGI,786-0 renal,41.9 µM
same,TGI,OVCAR-5 ovarian,> 57.2 µM
same,TGI,LOX IMVI melanoma,33.3 µM
same,TGI,RPMI-8226 leukemia,36.3 µM
same,TGI,TK-10 renal,54.6 µM
same,TGI,NCI-H522 lung,28.6 µM
same,TGI,COLO 205 colon,29.9 µM
same,TGI,UO-31 renal,30 µM
same,TGI,CCRF-CEM leukemia,74 µM
same,TGI,SF-539 CNS,39.3 µM
same,TGI,HL-60(TB) leukemia,20.4 µM
same,TGI,SF-268 CNS,> 95.5 µM
same,TGI,EKVX NSCLC,70.5 µM
same,TGI,OVCAR-3 ovarian,26.1 µM
same,TGI,K-562 leukemia,18 µM
same,TGI,RXF 393 renal,> 100 µM
same,TGI,HT29 colon,24.5 µM
